{"source": "patent US20250115894A1", "about": "“Three-dimensional model of exposed microbial membranes at gas-liquid interface and preparation method thereof” (priority 2023, published 2025)", "key": {"[1]": {"tested_on": "Recombinant Escherichia coli strains with the rec A genetic pathway", "assay": "Fluorescent signal of rec A recombinant strains exposed to dimethyl sulfate solution, immobilized versus not immobilized", "type": "cell-based", "conditions": "50 mg/L solution of dimethyl sulfate"}, "[2]": {"tested_on": "29 recombinant Escherichia coli strains carrying plasmids with different genetic pathways", "assay": "In-situ gaseous exposure genotoxicity detection with hydrogel beads containing immobilized recombinant Escherichia coli strains", "type": "cell-based", "source_text": "Embodiment 5: Immobilization of 29 recombinant Escherichia coli strains carrying plasmids with different genetic pathways by hydrogel beads for genotoxicity detection of pollutants, including DNA damage, DNA repair, and oxidative stress: • (1) The nutrient in the core was a modified M9 medium, including MgCl2, CaCl2), NaCl, NH4Cl, Tris-HCl (pH-7.4) buffer, and glucose, to ensure the continued survival of the recombinant Escherichia coli strains when exposed at the air-liquid interface. • (2) The hydrogel beads containing immobilized 29 recombinant Escherichia coli strains, were assembled in a specially designed gaseous exposure system. Different concentrations (ranging from 20 to 500 mg/m^3) of gaseous methanesulfonic acid methyl ester were introduced into the exposure system for simultaneous exposure. […] In summary, a rapid analysis of the genotoxicity fingerprint of gaseous methanesulfonic acid methyl ester was conducted from the perspective of in-situ exposure."}, "[3]": {"conditions": "20 to 500 mg/m^3, as exposure concentration increased"}}, "note": "Structures can show the parent of a compound that is named as a salt."}
{"smiles": "COS(=O)(=O)OC", "note": "[dimethyl sulfate]", "values": [{"measurement": "Fluorescent signals of rec A strains immobilized in hydrogel beads compared to not immobilized", "setting": "[1]", "result": "stronger fluorescent signals"}]}
{"smiles": "COS(C)(=O)=O", "note": "[methanesulfonic acid methyl ester]", "values": [{"measurement": "Ina A gene expression (SOS response)", "setting": "[2]; 20 to 500 mg/m^3", "result": "downregulation"}, {"measurement": "pol B gene pathway expression (DNA damage/repair)", "setting": "[2]; 20 to 500 mg/m^3", "result": "significant upregulation"}, {"measurement": "rec A gene pathway expression (DNA damage/repair)", "setting": "[2]; 20 to 500 mg/m^3", "result": "significant upregulation"}, {"measurement": "rec N gene pathway expression (DNA damage/repair)", "setting": "[2]; 20 to 500 mg/m^3", "result": "significant upregulation"}, {"measurement": "sox R gene expression (SOS response)", "setting": "[2]; 20 to 500 mg/m^3", "result": "downregulation"}, {"measurement": "Kat G gene expression (oxidative stress)", "setting": "[2]; [3]", "result": "significant upregulation"}, {"measurement": "ahp C gene expression (oxidative stress)", "setting": "[2]; [3]", "result": "significant upregulation"}]}
